From PubChem BioAssay (NCI) come the findings set out here.

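The compound was tested at five concentrations on cells cultured in 96-well plates, with a 48-hour exposure period. At the GI50, growth is halved. TGI denotes the concentration required for complete inhibition of growth.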

Some test systems named below: CCRF-CEM leukemia; HCT-15 colon; HOP-62 NSCLC; HS 578T breast; MCF7 breast; MOLT-4 leukemia; NCI-H23 lung; PC-3 prostate; SF-295 CNS; SK-MEL-2 melanoma; SN12C renal; SNB-75 CNS; SR leukemia; UACC-257 melanoma; UO-31 renal; SK-MEL-28 melanoma; SW-620 colon; NCI-H226 lung.
Holding throughout (assay): inhibition of tumour cell growth, NCI panel, 48 h

As to `O=C(O)c1cccc(Nc2c(C(=O)O)cccc2[N+](=O)[O-])c1`, the TGI in the assay on CCRF-CEM leukemia, in the assay on HCT-15 colon, in the assay on HOP-62 NSCLC, in the assay on HS 578T breast, in the assay with MCF7 breast and with MOLT-4 leukemia was greater than 100 µM each time. In addition, the TGI with NCI-H23 lung, with PC-3 prostate, in the assay with SF-295 CNS, in the assay on SK-MEL-2 melanoma, in the assay on SN12C renal and in the assay on SNB-75 CNS was greater than 100 µM each time. Further, the TGI with SR leukemia, in the assay on UACC-257 melanoma and in the assay on UO-31 renal was greater than 100 µM throughout.
For the compound `CC(=O)OC1=NN=C2COC(c3ccccc3OC(C)=O)=NN2C1`, the TGI in the assay with CCRF-CEM leukemia, in the assay on HCT-15 colon, in the assay with HOP-62 NSCLC, with HS 578T breast, with MCF7 breast and with NCI-H23 lung was greater than 50 µM each time. Also, the TGI in the assay on PC-3 prostate, with SF-295 CNS, with SK-MEL-2 melanoma, in the assay with SK-MEL-28 melanoma, in the assay with SN12C renal and with SNB-75 CNS was greater than 50 µM in each case. For the same compound, the TGI in the assay on SR leukemia, with SW-620 colon, with UACC-257 melanoma and in the assay with UO-31 renal was greater than 50 µM throughout.
Consider `O=S(=O)(/N=S(/Nc1ccccc1)C(Cl)Cl)c1ccccc1` (stereo not given), for which the TGI with CCRF-CEM leukemia, in the assay on HCT-15 colon, in the assay with HOP-62 NSCLC, with HS 578T breast, in the assay with MCF7 breast and in the assay with MOLT-4 leukemia was greater than 100 µM throughout. The TGI in the assay with NCI-H226 lung, in the assay on NCI-H23 lung, in the assay on PC-3 prostate, in the assay on SF-295 CNS, in the assay on SK-MEL-2 melanoma and in the assay with SK-MEL-28 melanoma was greater than 100 µM throughout. In addition, the TGI in the assay on SN12C renal, in the assay on SNB-75 CNS, in the assay with SW-620 colon, with UACC-257 melanoma and in the assay on UO-31 renal was greater than 100 µM in each case.
On to `COc1ccc(CC2Cc3ccccc3CCN2)cc1OC` (stereo not given), for which the TGI in the assay on CCRF-CEM leukemia, with HCT-15 colon, in the assay on HOP-62 NSCLC, with HS 578T breast, in the assay with MCF7 breast and with MOLT-4 leukemia was greater than 50 µM each time. Further, the TGI with NCI-H226 lung, in the assay with NCI-H23 lung, in the assay on PC-3 prostate, with SF-295 CNS, in the assay on SK-MEL-2 melanoma and with SK-MEL-28 melanoma was greater than 50 µM each time. The TGI in the assay on SN12C renal, in the assay with SNB-75 CNS, with SW-620 colon, in the assay on UACC-257 melanoma and in the assay with UO-31 renal was greater than 50 µM throughout.
`CN(C)CCn1c(=O)c2ccc(NCCNCCO)c3c(=O)c4ccccc4n(c1=O)c23`: the TGI in the assay on HCT-15 colon was determined as 6.9 µM; in the assay with HOP-62 NSCLC it was 0.851 µM; in the assay on HS 578T breast, 1.37 µM; in the assay on MCF7 breast, 3.2 µM; in the assay with NCI-H226 lung it was 4.28 µM; with NCI-H23 lung it was 0.849 µM. The TGI was 2.09 µM in the assay on PC-3 prostate; 14.6 µM in the assay with SF-295 CNS; 1.85 µM in the assay on SK-MEL-2 melanoma; greater than 19.7 µM with SK-MEL-28 melanoma; 0.509 µM in the assay with SN12C renal; 0.404 µM with SNB-75 CNS. The TGI was greater than 30.7 µM in the assay on SW-620 colon, 3.14 µM with UACC-257 melanoma and 0.842 µM in the assay on UO-31 renal.
As for `Cc1c2c(cc3c1C(=O)C(=O)C([C@@H](C)CO)=C3O)C(C)(C)CCC2`, the TGI was 40.7 µM with CCRF-CEM leukemia; greater than 100 µM in the assay with HCT-15 colon; greater than 100 µM with HOP-62 NSCLC; greater than 100 µM in the assay on HS 578T breast; 93.2 µM in the assay with MOLT-4 leukemia; greater than 100 µM in the assay on NCI-H226 lung. For the same compound, the TGI with NCI-H23 lung is 45.2 µM; with PC-3 prostate, 48.2 µM; in the assay with SF-295 CNS, greater than 100 µM; in the assay with SK-MEL-2 melanoma, 47.2 µM; in the assay with SK-MEL-28 melanoma, greater than 100 µM; with SN12C renal, greater than 100 µM. The TGI in the assay with SNB-75 CNS was 86.5 µM; in the assay with SR leukemia, 56.7 µM; in the assay with SW-620 colon, greater than 100 µM; in the assay on UACC-257 melanoma, greater than 100 µM; with UO-31 renal, 38.6 µM.
On to `Cc1nc2ccccc2c(=O)n1NC(=O)c1ccccn1`, for which the TGI in the assay on CCRF-CEM leukemia, with HOP-62 NSCLC, with HS 578T breast, in the assay on MOLT-4 leukemia, in the assay on NCI-H23 lung and in the assay with PC-3 prostate was greater than 100 µM in each case. Also, the TGI in the assay on SF-295 CNS, in the assay with SK-MEL-28 melanoma, in the assay on SN12C renal, with SNB-75 CNS, in the assay with SR leukemia and with SW-620 colon was greater than 100 µM in each case. Further, the TGI with UACC-257 melanoma and in the assay on UO-31 renal was greater than 100 µM throughout.
As for `COc1cc2c(/C=C3/C(=O)Nc4ccc(O)cc43)c(Cl)n(Cc3ccccc3)c2cc1C`, the TGI was greater than 100 µM in the assay with CCRF-CEM leukemia; greater than 22.6 µM in the assay on HCT-15 colon; 9.39 µM in the assay with HOP-62 NSCLC; 3.36 µM in the assay on HS 578T breast; greater than 100 µM in the assay with MOLT-4 leukemia; 15.5 µM in the assay on NCI-H226 lung. Also, the TGI with NCI-H23 lung is 3.89 µM; with PC-3 prostate it was greater than 87.1 µM; in the assay on SF-295 CNS, 3.91 µM; in the assay on SK-MEL-2 melanoma it was greater than 100 µM; with SK-MEL-28 melanoma, 44.1 µM; in the assay with SN12C renal, greater than 45.3 µM. Also, the TGI in the assay with SNB-75 CNS is greater than 100 µM; with SR leukemia it was 3.35 µM; in the assay on SW-620 colon, 19.9 µM; in the assay on UACC-257 melanoma, greater than 56.5 µM; in the assay on UO-31 renal, greater than 100 µM. Further, in the assay with HOP-62 NSCLC, the GI50 was 0.403 µM.
In the case of `C1C2CC3CC1CC(c1nn4c(C56CC7CC(CC(C7)C5)C6)nnc4s1)(C2)C3`, the TGI with CCRF-CEM leukemia, in the assay on HCT-15 colon, in the assay on HOP-62 NSCLC, with HS 578T breast, in the assay on MOLT-4 leukemia and in the assay with NCI-H226 lung was greater than 100 µM throughout. The TGI in the assay on NCI-H23 lung, in the assay on PC-3 prostate, in the assay on SF-295 CNS, with SK-MEL-2 melanoma, in the assay with SK-MEL-28 melanoma and in the assay with SN12C renal was greater than 100 µM each time. In addition, the TGI in the assay on SNB-75 CNS, with SR leukemia, in the assay with SW-620 colon and with UO-31 renal was greater than 100 µM throughout.
